Test results: US8410056B2, “Pro-oxidant anti-cancer compounds” (priority 2006, dated 2013)

Tests used:
[1] = target: T1, SDH/Complex II, Paracoccus denitrificans membranes (Paracoccus denitrificans, UniProt Q59659+Q59660+Q59662); assay: SDH/Complex II activity, DCIP/PMS assay; assay type: biochemical; conditions: 100 or 300 μM α-TOS; compared to control
T1 construct: Membranes were prepared from harvested cells by treating with lysozyme; endogenous in cells; host or cells: membrane vesicles of P. denitrificans CCM 982 (NCIB 8944), endogenous enzyme
Method: Preparation of membrane vesicles from Paracoccus denitrificans. P. denitrificans CCM 982 (NCIB 8944) was grown anaerobically at 30° C. in a medium containing 50 mM succinate as the carbon source and 10 mM nitrate as the terminal acceptor. Membranes were prepared from harvested cells by treating with lysozyme according to Burnell et al (1975). After dilution in 0.1 M Na phosphate, pH 7.3, to a final protein concentration of approximately 20 mg/ml, the membranes were stored at −20° C. in 1 ml aliquots until used. The protein concentration was determined using the bicinchoninic acid method and an iEMS plate reader (Labsystem, Finland).
(§1) Measurement of mitochondrial complex II and complex I activity. A time course for the reduction of the complex II substrate 2,6-dichlorophenol indophenol (DCIP) by the mitochondrial preparations was followed by measuring the absorbance at 600 nm in 1 cm cuvettes containing a 1 ml reaction volume (ε600=21×10^3 M^−1cm^−1). The reaction components included NADH, 0.5 mM; succinate, 5 mM; KCN, 10 mM; DCIP, 50 μM; PMS, 50 μM. For each assay point, 0.5 mg sample protein was used and α-TOS was added at either 100 or 300 μM as indicated. The change in absorbance of DCIP was measured using a spectrophotometer (UVIKON XL, Secomam) and replicate samples were assayed (n=3). When measuring the complex I (NADH dehydrogenase activity), PMS was omitted. […]

[2] = system: NADH dehydrogenase (complex I); assay: Complex I (NADH dehydrogenase) activity; assay type: biochemical; conditions: data not shown
Method: as §1
Additional support for the role of α-TOS in inhibiting mitochondrial respiratory complex II activity was sought by isolating subcellular fractions containing mitochondrial preparations from rat liver as well as membranous fractions from P. denitrificans. For these studies, the assay method of SDH/Complex II activity was based on that of King (1967) using phenazine methosulphate (PMS) and the terminal electron acceptor, 2,6-dichloroindophenol (DCIP) as the indicator dye by following the decrease in absorbance at 600 nm as it was reduced by SDH driven under conditions of high succinate. […]

[3] = system: MDA-MB-453, MCF-7 and NeuTL breast cancer cells; assay: ATP bioluminescence assay; assay type: cell-based, human; murine; conditions: 6 or 24 h; normoxia or hypoxia
Method: Cell culture and treatment. […] Cells were cultured in DMEM with 10% FCS, 100 U/ml penicillin and 100 μg/ml streptomycin at 37° C. in a humidified atmosphere of 5% CO2. Mitochondrial complex I-deficient (Breen and Scheffler 1979; DeFrancesco et al 1976; Scheffler et al 2004) and complex II-deficient cells (Albayrak et al 2003; Oostveen et al 1995) were grown in DMEM with 10% FCS, […] glucose and non-essential amino acids.
At approximately 70% confluency, cells were treated with up to 50 μM α-TOS (Sigma), up to 100 μM 3-BP (Aldrich) or 30 ng/ml of human recombinant tumor necrosis factor-related apoptosis—inducing ligand (TRAIL) (Weber et al, 2002) under normoxic or hypoxic conditions. For hypoxia, cells overlaid with nitrogen-purged medium were placed in a hypoxic chamber pre-flushed extensively with nitrogen. The hypoxic chamber with cells was then placed in the incubator as required. α-TOS was dissolved in ethanol and used such that the final ethanol concentration in cell culture medium was <0.1% (v/v). Stock solutions of 3-BP were prepared in PBS prior to use.
ATP measurement. MDA-MB-453 and NeuTL cells were seeded at 2×10^5 per ml and MCF-7 cells at 1.2×10^5 per ml into 96-well tissue culture microtitre plates and allowed to recover overnight before use. Cells were incubated for 6 or 24 h with α-TOS or 3-BP under normoxia or hypoxia as described above. ATP levels were then measured using an ATP bioluminescence assay kit HSII (Roche Applied Science) according to the manufacturer's instructions. Briefly, control or treated cells were transferred into black microtitre plates after incubation for 5 min at room temperature with the cell lysis reagent. Luciferase reagent was added and the signal detected immediately using a Fluorostar Optima plate reader (BMG Labtech). Triplicate wells were read for each condition and data evaluated using a standard calibration curve prepared with known concentrations of ATP.

[4] = target: T2, complex II/SDH-dependent activity in NeuTL cells (Mus musculus, UniProt Q8K2B3+Q9CQA3+Q9CXV1+Q9CZB0); assay: MTT reduction assay of complex II/SDH activity in whole cells; assay type: cell-based, murine
T2 construct: For specifically measuring complex II activity in whole cells; endogenous in cells; host or cells: NeuTL murine breast cancer cells
Method: MTT assay. MTT solutions were prepared immediately before use by dissolving 2.5 mg/ml 3-(4,5-dimethyl[…] (MTT) (Sigma) in PBS alone or phenol red-free RPMI medium containing 20 mM succinic acid, pH 7.4. Stock solutions of 3-nitropropionic acid (3NPA) in ethanol, thenoyltrifluoroacetone (TTFA) in DMSO, 3-BP in PBS, α-TOS in DMSO, and MitoQ (Alleva et al, 2003, James et al, 2005) in ethanol were prepared. The drugs were tested on NeuTL cells cultured in exponential growth phase in 96-well microtitre plates using 4-8 replicate wells per dilution assayed. To assess the ability of MitoQ to restore MTT reduction, cells were pre-incubated for 60 min with 2 or 5 μM MitoQ. Final concentrations of ethanol or DMSO in cultures were ≦0.1%. Treated and control cells were allowed to reduce MTT to blue formazan crystals for 2 or 4 h at 37° C. and 5% CO2. After incubation, culture supernatants were removed except for 30 μl, before the formazan crystals were solubilized by addition of 150 μl DMSO, and absorbance values were measured at 570 nm using a Fluorostar Optima plate reader.
To this end, the present inventors investigated whether α-TOS interferes with UbQ binding in complex II. For specifically measuring complex II activity in whole cells, a short-term (1-2 h) assay was used based on the reduction of the tetrazolium salt, MTT (Maehara et al, 1988). […] For this, oxidative respiration of murine NeuTL breast cancer cells was sustained on high levels of succinate (20 mM), thereby promoting the SDH activity of complex II (Maehara et al, 1988). The cells were then assayed within 1-2 h for their ability to enzymatically reduce MTT, which under conditions of high succinate becomes a specific indicator of complex II/SDH-dependent activity (Maehara et al, 1988, Berridge and Tan, 1993).

T2 sequence (Q8K2B3 43-664): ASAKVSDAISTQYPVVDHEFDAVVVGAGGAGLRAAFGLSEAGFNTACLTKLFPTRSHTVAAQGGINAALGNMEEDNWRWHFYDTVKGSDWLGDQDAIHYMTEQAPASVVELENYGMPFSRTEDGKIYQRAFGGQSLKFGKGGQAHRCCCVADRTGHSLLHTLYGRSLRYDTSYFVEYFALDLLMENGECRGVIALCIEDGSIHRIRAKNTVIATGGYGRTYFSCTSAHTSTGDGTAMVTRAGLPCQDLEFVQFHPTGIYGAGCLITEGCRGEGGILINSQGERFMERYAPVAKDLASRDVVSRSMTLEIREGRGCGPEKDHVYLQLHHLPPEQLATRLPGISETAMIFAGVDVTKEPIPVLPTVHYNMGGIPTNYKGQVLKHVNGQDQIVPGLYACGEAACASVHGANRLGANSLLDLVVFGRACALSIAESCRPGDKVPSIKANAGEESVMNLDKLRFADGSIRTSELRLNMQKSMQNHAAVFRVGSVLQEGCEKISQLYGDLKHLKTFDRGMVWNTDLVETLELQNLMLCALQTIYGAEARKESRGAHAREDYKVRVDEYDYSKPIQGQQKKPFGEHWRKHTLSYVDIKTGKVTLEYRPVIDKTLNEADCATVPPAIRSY
T2 sequence (Q9CQA3 31-282): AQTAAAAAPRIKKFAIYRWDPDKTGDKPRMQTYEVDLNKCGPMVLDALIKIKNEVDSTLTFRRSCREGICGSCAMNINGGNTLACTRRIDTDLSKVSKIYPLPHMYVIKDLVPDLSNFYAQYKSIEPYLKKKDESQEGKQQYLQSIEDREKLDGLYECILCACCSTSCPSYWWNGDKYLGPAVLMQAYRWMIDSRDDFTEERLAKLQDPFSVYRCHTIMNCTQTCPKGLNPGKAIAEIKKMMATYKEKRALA
T2 sequence (Q9CZB0 30-169): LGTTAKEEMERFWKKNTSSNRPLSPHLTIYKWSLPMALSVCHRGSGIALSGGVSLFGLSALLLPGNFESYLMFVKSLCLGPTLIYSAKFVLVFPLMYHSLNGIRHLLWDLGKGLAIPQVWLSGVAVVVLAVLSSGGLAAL
T2 sequence (Q9CXV1 57-159): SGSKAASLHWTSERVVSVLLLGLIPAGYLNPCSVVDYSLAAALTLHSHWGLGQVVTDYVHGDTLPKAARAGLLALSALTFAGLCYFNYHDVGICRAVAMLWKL
T1 sequence (Q59662 whole entry): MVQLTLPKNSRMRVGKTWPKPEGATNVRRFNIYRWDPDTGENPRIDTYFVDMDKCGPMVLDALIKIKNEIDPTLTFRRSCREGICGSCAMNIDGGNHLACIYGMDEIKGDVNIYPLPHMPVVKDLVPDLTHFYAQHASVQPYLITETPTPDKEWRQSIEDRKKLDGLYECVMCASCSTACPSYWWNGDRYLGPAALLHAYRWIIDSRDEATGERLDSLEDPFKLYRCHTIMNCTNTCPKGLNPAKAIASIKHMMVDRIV
T1 sequence (Q59660 whole entry): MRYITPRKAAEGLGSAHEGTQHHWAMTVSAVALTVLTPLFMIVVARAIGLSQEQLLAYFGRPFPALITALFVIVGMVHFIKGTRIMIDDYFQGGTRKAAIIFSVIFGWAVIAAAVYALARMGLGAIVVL
T1 sequence (Q59659 whole entry): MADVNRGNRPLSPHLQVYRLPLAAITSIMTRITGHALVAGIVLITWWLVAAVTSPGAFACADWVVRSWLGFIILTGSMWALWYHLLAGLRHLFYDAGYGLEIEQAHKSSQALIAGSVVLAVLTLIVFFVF
T1 sequence (Q59661 whole entry, further chain): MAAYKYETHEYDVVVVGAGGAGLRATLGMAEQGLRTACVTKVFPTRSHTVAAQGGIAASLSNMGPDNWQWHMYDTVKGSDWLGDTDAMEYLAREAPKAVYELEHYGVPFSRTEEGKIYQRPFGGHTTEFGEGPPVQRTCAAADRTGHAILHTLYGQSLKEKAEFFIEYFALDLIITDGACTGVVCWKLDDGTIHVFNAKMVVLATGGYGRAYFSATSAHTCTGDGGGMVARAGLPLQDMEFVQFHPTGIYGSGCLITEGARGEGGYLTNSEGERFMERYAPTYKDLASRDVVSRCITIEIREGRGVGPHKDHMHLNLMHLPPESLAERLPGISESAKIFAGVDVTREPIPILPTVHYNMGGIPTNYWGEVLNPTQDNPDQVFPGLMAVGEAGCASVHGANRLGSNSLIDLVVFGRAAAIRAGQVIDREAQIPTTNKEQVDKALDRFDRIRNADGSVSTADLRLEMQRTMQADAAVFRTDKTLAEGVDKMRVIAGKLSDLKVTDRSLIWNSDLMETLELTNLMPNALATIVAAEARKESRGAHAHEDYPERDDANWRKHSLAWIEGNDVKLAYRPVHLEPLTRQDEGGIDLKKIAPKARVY

Cc1c(C)c2c(c(C)c1OC(=O)CCC(=O)O)CC[C@@](C)(CCC[C@H](C)CCC[C@H](C)CCCC(C)C)O2 [Compound 1, α-tocopheryl succinate]
rate of reduction of DCIP (SDH/Complex II activity) [1]: decreased rapidly and significantly after treatment with α-TOS | NADH dehydrogenase (complex I) activity [2]: no effect | cellular ATP levels [3]: only significantly reduced cellular ATP levels when applied at the higher concentration of 50 μM | inhibition of MTT reduction after MitoQ pre-incubation ([4]; cells pre-incubated 1 h with MitoQ): significantly overcome by pre-incubation of the cells with MitoQ | enzymatic reduction of MTT ([4]; within a few hours of treatment): significant decreases occurring in the levels of MTT reduction
